Measured values as given in patent publication US20160368872A1, “COMPOUNDS AND METHODS FOR TREATING CANCERS” (HEALTH RESEARCH, INC., priority 2013, published 2016).

Columns and labels:
[1] = metabolic stability in the presence of mouse liver microsomes; format: in vitro ADME
Protocol: 8 compounds were selected based on the solubility and metabolic stability as well as considering chemical diversity to test for time dependence stability in the presence of mouse […] (FIG. 2). […] Two compounds, PLA1190 and 1197, have desirable metabolic stability, 70 and 77% left after 30 minute incubation with mouse liver microsome respectively. Formulations for in vivo administration were developed for 4 compounds, PLA1079, 1125, 1098 and 1148.

[2] = aqueous solubility (pH 7.4); format: physicochemical
[3] = solubility for in vivo administration; format: physicochemical
[4] = tissue drug concentrations in mice bearing CWR22R tumors; format: in vivo, SCID mice
Protocol: (§1) We tested these compounds in an in vivo efficacy experiment using model of CRPC in SCID mice, CWR22R. Two compounds, PLA1079 and 1125, which were synthesized in the amount of 500 mg were tested in full scale experiment with either 5 IV daily injections or 10 IP daily injections. After 5 IP or IV injections intra-tumor concentration of the compounds were measured in few mice from this experiment.
Two other compounds, PLA1148 and 1098 (PK testing in FIGS. 8 and 9) were tested in a small scale efficacy experiment. Upon PK testing of the compound PLA1148 one mouse was injected twice with 10 min interval. However the concentration of the drug in plasma of this mouse was not twice, but >4 times higher than in mice injected once. […] It was decided to utilize this observation in an attempt to get higher plasma and tumor concentration of both compounds. Therefore in the pilot efficacy experiment in the same model of CWR22R cells mice were treated with 2 IP injections with 10 minute interval. Treatment with PLA1098 was carried out for two days. […] However this is so far the highest concentration found in tumor. […]

[5] = test system: CWR22R cells; format: cell-based
Protocol: All compounds were tested for toxicity using 4 cells lines, target cells-CWR22R and non-target cells, Hela, PC3 and MDA-MB-231 (FIGS. 1A-F).
LC50 data of in vitro 72 hours cytotoxicity assay are included in this table for comparison.

[6] = test system: presumable target protein in protein lysates from sensitive CWR22r cells; assay: DARTS (Drug Affinity Responsive Target Stability) assay; conditions: treated vs untreated
Protocol: FIG. 24. DARTS (Drug Affinity Responsive Target Stability) assay was performed using c52 and PLA1118. According to this assay these compounds are capable of protecting presumable target protein from protease degradation. Protein lysates from sensitive CWR22r cells were incubated with or without the drug and subsequently digested with the indicated concentration of pronase. A. c52 was used (lane T-treated, M-marker) with indicated concentrations of pronase; ability of c52 to protect its target from protease cleavage was judged based on presence of protein band in the treated lane vs the untreated (UT) control.

[7] = toxicity observed in mice of the pilot efficacy experiments; format: in vivo
Protocol: (§2) Two other compounds, PLA1148 and 1098 (PK testing in FIGS. 8 and 9) were tested in a small scale efficacy experiment. Upon PK testing of the compound PLA1148 one mouse was injected twice with 10 min interval. However the concentration of the drug in plasma of this mouse was not twice, but >4 times higher than in mice injected once. […] It was decided to utilize this observation in an attempt to get higher plasma and tumor concentration of both compounds. Therefore in the pilot efficacy experiment in the same model of CWR22R cells mice were treated with 2 IP injections with 10 minute interval. Treatment with PLA1098 was carried out for two days. […] However this is so far the highest concentration found in tumor.
This compound may be also potentially promising.

[8] = test system: CWR22R tumors; assay: in vivo efficacy, subcutaneous xenografts of CWR22R cells in SCID mice
Protocol: as §1, §2
Pilot efficacy experiments were run for compounds: PLA1163, PLA1148 using the same model of subcutaneous xenografts of CWR22R cells in SCID mice (FIGS. 18 and 19).

[9] = plasma concentration after intravenous and intraperitoneal injections (PK); format: in vivo; conditions: for bioavailability through IP injection: IP versus IV, doses 50-100 mg/kg; for course of plasma concentration: after intravenous and intraperitoneal injections, 50-100 mg/kg
[10] = test system: androgen receptor; assay: AR level in cells with inhibited p53 activity; format: cell-based; conditions: MCF7 cells with functionally inactive p53 (R175H, GSE56)
Text: Also tested was the hypothesis that degradation of androgen receptor in prostate and breast cancer cells may be due to p53 induced accumulation of mdm2, which is also ubiquitin ligase for androgen receptor (FIG. 15). p53 was inactivated in several cell lines using different approaches what led to the blockade of mdm2 accumulation after c52 treatment. However androgen receptor was still degraded in c52 treated cells even in the absence of p53 activation and mdm2 accumulation (FIG. 16).

[11] = test system: Caveolin1; assay: expression of Caveolin1 in sensitive versus resistant cells; format: cell-based; conditions: MDA MB 231 and MCF7 cells
Text: FIG. 12. Expression of Caveolin1 in sensitive versus resistant cells. Caveolin1 is expressed in resistant MDA MB 231 cells, but not in sensitive MCF7 cells.

[12] = test system: CWR22R cells; assay: toxicity of PLA1055 to CWR22R cells depending on time of incubation (LC90, Alamar Blue); format: cell-based; conditions: incubation 4-8 hours; survival detected at 72 hours
Protocol: FIG. 21. Toxicity of PLA1055 to CWR22R cells in vitro depending on time of incubation. PLA1055 was added to CWR22R in full range of concentrations for the periods of time shown on the right. After that drug containing media were changed for drug free and survival of cells was detected at 72 hours after start of treatment using Alamar Blue assay (Promega).
An in vitro experiment was run to detect the concentration of PLA1055 needed to kill all tumor cells in vitro (LC90) during different periods of time (30 minutes-72 hours, FIG. 21)).

[13] = 24 hours after last injection, 2 IP injections with 10 minute interval, two days
[14] = 2 IP injections with 10 minute interval, one day
[15] = one mouse at 24 hours after injections

With `O=c1[nH]c2ccc3c(c4ccccc4n3CCCF)c2o1` [PLA1190] as the compound, how does the “left after 30 minute incubation with mouse liver microsome” value [1] read?
Its value is 70%.

What about the “Aqueous Solubility Classification” value [2] of the same compound?
Its value is “Low”.

What about the “Aqueous Solubility (pH 7.4)” value [2] of the same compound?
The value was 3.5 μM.

Which solubility [3] does the source give for `CCCn1c2ccccc2c2c3cc[nH]c(=O)c3ccc21` [PLA1099] here?
The solubility was “poorly soluble”.

With `O=C1CCc2c1ccc1c2c2c(F)cccc2n1CCCF` [PLA1197] as the compound, how does the “left after 30 minute incubation with mouse liver microsome” value [1] read?
The value was 77%.

What about the “Aqueous Solubility Classification” value [2] of the same compound?
Its value is “Low”.

And the “Aqueous Solubility (pH 7.4)” value [2]?
The value was 4.0 μM.

Which “Liver” value ([4]; 40 mg/kg, IP) does the source give for `O=C1NCCOc2c1ccc1c2c2ccccc2n1CCCF` [PLA1163] here?
The value was 307 nM.

What about the “Tumor concentration” value ([4]; 40 mg/kg, IP) of the same compound?
The value was 4 to 10 nM.

And the CC50 [5]?
The CC50 was 200 nM.

What about the solubility [3] of the same compound?
Its solubility is “poorly soluble”.

With `O=c1[nH]ccc2c1ccc1c2c2ccccc2n1CCCF` [PLA1121] as the compound, how does the solubility [3] read?
The solubility was “poorly soluble”.

For `CCCn1c2ccccc2c2c3c(ccc21)C(=O)N(C)C3` [PLA1098], which “protection of target protein band from pronase degradation” value [6] is on record?
The value was “protected their targets from degradation”.

What about the “side effects during the treatment” value ([7]; 2 IP injections with 10 minute interval for two days) of the same compound?
Its value is “no signs of side effects were noticed”.

What about the signs of toxicity ([7]; summary statement) of the same compound?
The signs of toxicity was “without any signs of toxicity”.

What about the “Liver” value ([4]; 100 mg/kg, IP) of the same compound?
The value was 0 nM.

And the “Tumor concentration” value ([4]; 100 mg/kg, IP)?
The value was 23 to 25 nM.

And the Intratumor concentration ([4]; 2 tested tumors at 24 hours after last injection, 2 IP injections with 10 minute interval, two days)?
The Intratumor concentration was 25 nM.

And the compound in liver [4, 13]?
The compound in liver was “no detectable”.

And the compound in plasma [4, 13]?
Its compound in plasma is “no detectable”.

And the CC50 [5]?
The CC50 was 40 nM.

And the “tumor volume and tumor weight vs vehicle control” value ([8]; 2 IP injections with 10 minute interval for two days, tumors excised 12 days after treatment)?
The value was “certain reduction of tumor volume and tumor weigh in the 1098 treated group vs vehicle control, but not statistically significant”.

What about the in vivo efficacy ([8]; summary statement) of the same compound?
Its in vivo efficacy is “evidence of in vivo efficacy”.

And the “bioavailability through IP injection” value [9]?
Its value is “very high bioavailability”.

And the “course of plasma concentration” value [9]?
Its value is “fast reduction of concentration during the first hour”.

For `CCCn1c2ccccc2c2cc(-c3nnco3)ccc21` [PLA1079], which AR level [10] is on record?
Its AR level is “AR is being degraded”.

What about the “levels of Caveolin1 expression” value [11] of the same compound?
The value was “did not change”.

What about the “Tumor concentration” value ([4]; 100 mg/kg, IP/IV) of the same compound?
The value was 24 to 48 nM.

What about the CC50 [5] of the same compound?
The CC50 was 120 nM.

What about the in vivo efficacy ([8]; 5 IV daily injections or 10 IP daily injections) of the same compound?
Its in vivo efficacy is “absence of in vivo efficacy”.

And the “bioavailability through IP injection” value [9]?
Its value is “very high bioavailability”.

And the “course of plasma concentration” value [9]?
The value was “fast reduction of concentration during the first hour”.

For `O=C1NCCc2c1ccc1c2c2ncccc2n1CCCF` [PLA1148], which deaths of mice [7, 14] is on record?
The deaths of mice was 2 mice died next day and 3 other during next 5 days.

And the toxicity after injection [7, 14]?
The toxicity after injection was “acute toxicity developed quickly after injection, symptoms suggested acute liver failure”.

What about the “Liver” value ([4]; 50 mg/kg, IP) of the same compound?
The value was 50 nM.

What about the “Tumor concentration” value ([4]; 50 mg/kg, IP) of the same compound?
Its value is 0 to 90 nM.

What about the Tumor concentration ([4]; 48 hours after treatment) of the same compound?
Its Tumor concentration is 84 nM.

And the liver concentration ([4]; 48 hours after treatment)?
The liver concentration was 49 nM.

What about the plasma concentration ([4]; mice euthanized at 48 hours after treatment) of the same compound?
The plasma concentration was “The same plasma concentration”.

What about the drug in liver [4, 15] of the same compound?
The drug in liver was “no drug detected”.

And the drug in tumor [4, 15]?
Its drug in tumor is “no drug detected”.

What about the plasma concentration [4, 15] of the same compound?
The plasma concentration was 8.5 nM.

And the “tumors of mice that died on the 5th day” value ([8]; two mice, injected only one day)?
Its value is “almost undetectable tumors”.

And the “bioavailability through IP injection” value [9]?
The value was “very high bioavailability”.

What about the “course of plasma concentration” value [9] of the same compound?
Its value is “fast reduction of concentration during the first hour”.

And the “concentration in plasma of mouse injected twice with 10 min interval versus mice injected once” value ([9]; one mouse injected twice)?
The value was > 4 times.

Which AR level [10] does the source give for `CC(=O)c1ccc2c(c1)c1cc(C(C)=O)ccc1n2CCNC(C)C` [CBL 137, reference compound] here?
The AR level was “AR is being degraded”.

Which “protection of target protein band from pronase degradation” value [6] does the source give for `CCCn1c2ccccc2c2cc(S(C)(=O)=O)ccc21` [PLA1118] here?
The value was “faintly”.

Which CC50 [5] does the source give for `CC(=O)c1ccc2c(c1)c1ccccc1n2CCCF` [PLA1055] here?
The CC50 was 40 nM.

What about the LC90 [12] of the same compound?
The LC90 was 2500 nM.

What about the “plasma concentration at 8 hours” value ([9]; 8 hours, single IV administration of 50 mg/kg (FIG. 20)) of the same compound?
The value was “below 1 uM”.

And the “time up to which compound was detected” value ([9]; single IV administration of 50 mg/kg (FIG. 20))?
Its value is “up to 24 hours”.
